In the supplement of paper PMC8617591:

How the values were obtained:
[1] = system: Mycobacterium tuberculosis Erdman (autoluminescent); assay: total FIC50 (Loewe) at 50% inhibition, three-drug combination (log2); higher = more antagonistic
Procedure: (§1)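 DiaMOND equipotent three-drug combination dose responses (10 doses, 1.5- or 2-fold spacing, centred on IC90) against autoluminescent M. tuberculosis Erdman in 8 in vitro models. Read-out is OD600, or luminescence for the intracellular and dormancy models, normalised to untreated wells. Hill-fit Einf, AUC25 and GRinf are potency metrics; FIC50 and FIC90 are total Loewe fractional inhibitory concentrations as log2 (negative = synergy).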

[2] = system: Mycobacterium tuberculosis Erdman (autoluminescent); assay: GRinf, maximum normalised growth rate inhibition (three-drug combination) (unitless (-1 to 1)); higher = less effect (negative = killing)
Procedure: as §1

[3] = system: Mycobacterium tuberculosis Erdman (autoluminescent); assay: total FIC90 (Loewe) at 90% inhibition, three-drug combination (log2); higher = more antagonistic
Procedure: as §1

[4] = system: Mycobacterium tuberculosis Erdman (autoluminescent); assay: AUC25, normalised area under dose response up to IC25 (three-drug combination) (fraction (0-1)); higher = more potent at low dose
Procedure: as §1

[5] = system: Mycobacterium tuberculosis Erdman (autoluminescent); assay: Einf, fitted maximum growth inhibition of three-drug combination (fraction); higher = stronger maximal inhibition
Procedure: as §1

[6] = in vitro model: acidic pH 5.7, time point: constant (~7 days, model-specific)
[7] = in vitro model: acidic pH 5.7, time point: terminal (~4-5 doublings, model-specific)
[8] = in vitro model: butyrate, time point: constant (~7 days, model-specific)
[9] = in vitro model: butyrate, time point: terminal (~4-5 doublings, model-specific)
[10] = in vitro model: cholesterol 0.05 mM, time point: terminal (~4-5 doublings, model-specific)
[11] = in vitro model: cholesterol-high 0.2 mM, time point: constant (~7 days, model-specific)
[12] = in vitro model: cholesterol-high 0.2 mM, time point: terminal (~4-5 doublings, model-specific)
[13] = in vitro model: dormancy (butyrate + nitrate, low O2), time point: constant (~7 days, model-specific)
[14] = in vitro model: dormancy (butyrate + nitrate, low O2), time point: terminal (~4-5 doublings, model-specific)
[15] = in vitro model: standard 7H9 glycerol, time point: constant = terminal
[16] = in vitro model: valerate, time point: constant (~7 days, model-specific)
[17] = in vitro model: valerate, time point: terminal (~4-5 doublings, model-specific)
[18] = in vitro model: cholesterol 0.05 mM, time point: constant (~7 days, model-specific)
[19] = in vitro model: intracellular J774, time point: constant = terminal

With `NNC(=O)c1ccncc1` [isoniazid] + O=[N+]([O-])c1cn2c(n1)OC[C@@H](OCc1ccc(OC(F)(F)F)cc1)C2 [pretomanid] + NC(=O)c1cnccn1 [pyrazinamide] as the compound, how does the “total FIC50” value [1, 6] read?
Its value is -0.198.

And the “total FIC50” value [1, 7]?
The value was -0.0964.

And the “total FIC50” value [1, 8]?
Its value is 0.158.

What about the “total FIC50” value [1, 9] of the same compound?
Its value is 0.227.

What about the “total FIC50” value [1, 10] of the same compound?
The value was 5.94.

What about the “total FIC50” value [1, 11] of the same compound?
The value was 0.524.

And the “total FIC50” value [1, 12]?
The value was 0.832.

And the “total FIC50” value [1, 13]?
Its value is -0.215.

What about the “total FIC50” value [1, 14] of the same compound?
Its value is -0.137.

What about the “total FIC50” value [1, 15] of the same compound?
The value was 0.311.

And the “total FIC50” value [1, 16]?
The value was -0.24.

What about the “total FIC50” value [1, 17] of the same compound?
The value was 0.0468.

What about the GRinf [2, 6] of the same compound?
Its GRinf is -0.16.

And the GRinf [2, 7]?
The GRinf was -0.481.

What about the GRinf [2, 8] of the same compound?
The GRinf was -0.0723.

What about the GRinf [2, 9] of the same compound?
The GRinf was -0.0263.

And the GRinf [2, 18]?
The GRinf was -0.21.

And the GRinf [2, 10]?
Its GRinf is -0.353.

What about the GRinf [2, 11] of the same compound?
The GRinf was -0.172.

What about the GRinf [2, 12] of the same compound?
Its GRinf is -0.653.

And the GRinf [2, 13]?
The GRinf was 0.238.

And the GRinf [2, 14]?
The GRinf was -0.172.

And the GRinf [2, 19]?
Its GRinf is -0.492.

What about the GRinf [2, 15] of the same compound?
Its GRinf is 0.0829.

What about the GRinf [2, 16] of the same compound?
Its GRinf is -0.0645.

And the GRinf [2, 17]?
The GRinf was 0.077.

And the “total FIC90” value [3, 7]?
The value was -0.184.

What about the “total FIC90” value [3, 8] of the same compound?
Its value is 0.768.

What about the “total FIC90” value [3, 9] of the same compound?
The value was 0.423.

What about the “total FIC90” value [3, 12] of the same compound?
Its value is 0.548.

And the “total FIC90” value [3, 13]?
Its value is -0.286.

What about the “total FIC90” value [3, 14] of the same compound?
The value was -0.122.

And the “total FIC90” value [3, 19]?
Its value is 0.732.

What about the “total FIC90” value [3, 17] of the same compound?
The value was 0.0214.

What about the AUC25 [4, 6] of the same compound?
Its AUC25 is 0.0986.

What about the AUC25 [4, 7] of the same compound?
Its AUC25 is 0.0871.

What about the AUC25 [4, 8] of the same compound?
The AUC25 was 0.0971.

And the AUC25 [4, 9]?
Its AUC25 is 0.0657.

And the AUC25 [4, 18]?
The AUC25 was 0.106.

What about the AUC25 [4, 10] of the same compound?
The AUC25 was 0.0922.

And the AUC25 [4, 11]?
Its AUC25 is 0.0717.

And the AUC25 [4, 12]?
Its AUC25 is 0.0681.

What about the AUC25 [4, 13] of the same compound?
Its AUC25 is 0.0747.

What about the AUC25 [4, 14] of the same compound?
Its AUC25 is 0.0455.

And the AUC25 [4, 15]?
The AUC25 was 0.0648.

And the AUC25 [4, 16]?
The AUC25 was 0.115.

What about the AUC25 [4, 17] of the same compound?
Its AUC25 is 0.0719.

And the Einf [5, 6]?
Its Einf is 0.815.

What about the Einf [5, 7] of the same compound?
Its Einf is 0.976.

And the Einf [5, 8]?
The Einf was 0.946.

What about the Einf [5, 9] of the same compound?
The Einf was 0.972.

And the Einf [5, 18]?
Its Einf is 0.696.

What about the Einf [5, 10] of the same compound?
Its Einf is 0.924.

What about the Einf [5, 11] of the same compound?
Its Einf is 0.874.

And the Einf [5, 12]?
The Einf was 1.

What about the Einf [5, 13] of the same compound?
The Einf was 0.882.

And the Einf [5, 14]?
The Einf was 0.984.

What about the Einf [5, 19] of the same compound?
The Einf was 1.

And the Einf [5, 15]?
The Einf was 0.923.

And the Einf [5, 16]?
Its Einf is 0.888.

What about the Einf [5, 17] of the same compound?
Its Einf is 0.922.

With `CC(=O)NC[C@H]1CN(c2ccc(N3CCOCC3)c(F)c2)C(=O)O1` [linezolid] + CO[C@H]1/C=C/O[C@@]2(C)Oc3c(C)c(O)c4c(O)c(c(/C=N/N5CCN(C6CCCC6)CC5)c(O)c4c3C2=O)NC(=O)/C(C)=C\C=C\[C@H](C)[C@H](O)[C@@H](C)[C@@H](O)[C@@H](C)[C@H](OC(C)=O)[C@@H]1C [rifapentine] + CO[C@H]1/C=C/O[C@@]2(C)Oc3c(C)c(O)c4c(O)c(c(/C=N/N5CCN(C)CC5)c(O)c4c3C2=O)NC(=O)/C(C)=C\C=C\[C@H](C)[C@H](O)[C@@H](C)[C@@H](O)[C@@H](C)[C@H](OC(C)=O)[C@@H]1C [rifampicin] as the compound, how does the “total FIC50” value [1, 6] read?
Its value is 0.407.

And the “total FIC50” value [1, 7]?
The value was 0.327.

What about the “total FIC50” value [1, 8] of the same compound?
Its value is 0.125.

And the “total FIC50” value [1, 9]?
Its value is 0.0289.

What about the “total FIC50” value [1, 18] of the same compound?
The value was 0.106.

And the “total FIC50” value [1, 10]?
Its value is -0.0658.

And the “total FIC50” value [1, 11]?
Its value is 0.114.

What about the “total FIC50” value [1, 12] of the same compound?
Its value is 0.344.

What about the “total FIC50” value [1, 13] of the same compound?
The value was 0.564.

What about the “total FIC50” value [1, 14] of the same compound?
The value was -0.00521.

What about the “total FIC50” value [1, 15] of the same compound?
The value was 0.208.

And the “total FIC50” value [1, 16]?
The value was 0.124.

And the “total FIC50” value [1, 17]?
Its value is 0.039.

What about the GRinf [2, 6] of the same compound?
The GRinf was -0.162.

What about the GRinf [2, 7] of the same compound?
Its GRinf is -0.204.

And the GRinf [2, 8]?
Its GRinf is 0.14.

And the GRinf [2, 9]?
The GRinf was 0.106.

What about the GRinf [2, 18] of the same compound?
The GRinf was -0.259.

And the GRinf [2, 10]?
Its GRinf is -0.305.

What about the GRinf [2, 11] of the same compound?
The GRinf was -0.348.

What about the GRinf [2, 12] of the same compound?
Its GRinf is -0.881.

What about the GRinf [2, 13] of the same compound?
Its GRinf is 0.158.

What about the GRinf [2, 14] of the same compound?
The GRinf was -0.00168.

What about the GRinf [2, 19] of the same compound?
Its GRinf is -0.12.

And the GRinf [2, 15]?
Its GRinf is 0.155.

And the GRinf [2, 16]?
Its GRinf is 0.0506.

And the GRinf [2, 17]?
The GRinf was 0.0203.

What about the “total FIC90” value [3, 7] of the same compound?
Its value is 0.0907.

What about the “total FIC90” value [3, 9] of the same compound?
Its value is -0.462.

And the “total FIC90” value [3, 10]?
The value was 0.0643.

And the “total FIC90” value [3, 11]?
The value was 0.179.

And the “total FIC90” value [3, 12]?
The value was 0.213.

And the “total FIC90” value [3, 13]?
Its value is 0.837.

And the “total FIC90” value [3, 14]?
Its value is 0.318.

What about the “total FIC90” value [3, 19] of the same compound?
Its value is -0.258.

What about the “total FIC90” value [3, 17] of the same compound?
The value was -0.378.

What about the AUC25 [4, 6] of the same compound?
The AUC25 was 0.0833.

And the AUC25 [4, 7]?
The AUC25 was 0.0709.

What about the AUC25 [4, 8] of the same compound?
The AUC25 was 0.0767.

What about the AUC25 [4, 9] of the same compound?
The AUC25 was 0.0594.

And the AUC25 [4, 18]?
Its AUC25 is 0.147.

And the AUC25 [4, 10]?
The AUC25 was 0.127.

And the AUC25 [4, 11]?
Its AUC25 is 0.104.

And the AUC25 [4, 12]?
Its AUC25 is 0.0979.

And the AUC25 [4, 13]?
Its AUC25 is 0.0711.

And the AUC25 [4, 14]?
The AUC25 was 0.0539.

What about the AUC25 [4, 15] of the same compound?
The AUC25 was 0.0512.

And the AUC25 [4, 16]?
The AUC25 was 0.0508.

And the AUC25 [4, 17]?
Its AUC25 is 0.029.

And the Einf [5, 6]?
Its Einf is 0.893.

What about the Einf [5, 7] of the same compound?
Its Einf is 0.979.

And the Einf [5, 8]?
The Einf was 0.869.

What about the Einf [5, 9] of the same compound?
Its Einf is 0.933.

What about the Einf [5, 18] of the same compound?
The Einf was 0.654.

And the Einf [5, 10]?
Its Einf is 0.909.

And the Einf [5, 11]?
The Einf was 0.934.

And the Einf [5, 12]?
The Einf was 1.

What about the Einf [5, 13] of the same compound?
The Einf was 0.884.

What about the Einf [5, 14] of the same compound?
The Einf was 0.965.

What about the Einf [5, 19] of the same compound?
Its Einf is 0.93.

What about the Einf [5, 15] of the same compound?
The Einf was 0.879.

And the Einf [5, 16]?
Its Einf is 0.862.

What about the Einf [5, 17] of the same compound?
The Einf was 0.933.
